Reference: PMC8536600 (Cancer Chemotherapy and Pharmacology, 2021)
Read-outs that look alike come from different tables or passages of the source. Blank lines part the entries; values can stand above or below the molecule they belong to.

Key:
CYP3A4 = settings: cited from earlier work
[1] = Steady state Ruxolitinib trough serum concentrations in GvHD patients in clinical routine (LC-MS/MS); type: in vivo, human
Text: Patients were enrolled in a noninterventional prospective clinical trial at the University Hospital of Würzburg between February 2019 and February 2021. The study was approved by the Ethics Commission of the University of Würzburg (ref 199/18-am). All performed procedures were in accordance with the Declaration of Helsinki. Written informed consent was obtained from all patients. […] After enrollment blood samples and patient data were collected regularly during routine outpatient visits for 1 year. Treatment was managed at the discretion of the treating physician.
Serum samples were collected at each outpatient visit during routine blood withdrawal. Patients were asked to take Ruxolitinib after blood withdrawal. Date and time of last administration and blood withdrawal were recorded. Samples obtained at least 48 h after initiation or modification of therapy were considered steady state samples [27]. Samples obtained between eight and 30 h after last administration (depending on dosing scheme) were considered trough levels.
In brief, after protein precipitation with acetonitrile separation was achieved on a Waters XBridge Phenyl 3.5 µm (2.1 × 50 mm) column using gradient elution (flow rate 400 μL/min). […] Lower level of quantification (LLOQ) of the method was 2 ng/mL. Concentrations < LLOQ were excluded from further statistical analysis but included as censored data (between 0 ng/mL and LLOQ) in the popPK analysis.
(§1) Data were collected and processed using Microsoft Excel 2016 Version 16.0 (Microsoft Corporation, Redmond, WA, USA). Statistical calculations and visualization of results were performed with R Studio Version 1.2.5042 (RStudio Incorporation, Boston, MA, USA) and running R version 4.0.5 (R Foundation for Statistical Computing, Vienna, Austria, 2020). […] To fully display the degree of variability, concentrations were also summarized across all patients, stratified by dosing scheme. Pairwise comparisons were performed using Wilcoxon rank-sum test. Wilcoxon-signed-rank test was used for […] samples. For comparisons between more than two groups the Kruskal–Wallis one-way analysis of variance combined with Dunn’s test post hoc was used. Spearman’s correlation was used for analysis of AE. Logistic regression followed by receiver operator characteristic (ROC) analysis was used to evaluate the risk for the occurrence of AE of any grade or type on a visit in relation to the corresponding trough concentration on that visit. Due to the explorative nature of the study, p values obtained from multiple comparisons were not corrected for multiple testing. A p value < 0.05 was considered statistically significant. A Spearman’s rho (ρ) correlation was defined as follows: 0 to 0.3 or 0 to −0.3, weak; 0.3 to 0.7 or −0.3 to −0.7, moderate and 0.7 to 1 or −0.7 to −1, strong.

[2] = Exploratory population pharmacokinetic (popPK) analysis in GvHD patients; type: in vivo, human; settings: for RUV b (residual unexplained variability, proportional error) / ωCL/F (inter-individual variability on CL/F) / ωV (inter-individual variability on Vc/F): as standard deviation of normal distribution
Description: An exploratory popPK analysis was conducted to identify relevant covariates influencing drug exposure, to predict the influence of strong CYP3A4 or CYP2C9 inhibitors or PPI and to generate population estimates for apparent oral clearance (CL/F) and apparent central volume of distribution (Vc/F) as classical statistical analysis was not suitable due to the unbalanced number of samples per patient. The analysis was conducted on the individual raw data (as opposed to the descriptive statistics) using Monolix 2020R1 (Antony, France: Lixoft SAS, 2020) and was based on a previously published popPK model by Chen et al. investigating pharmacokinetics in patients with primary and secondary myelofibrosis (MF).
Oral pharmacokinetics were described by a two-compartment model using first order absorption with lag time and linear elimination from the first compartment only. The population mean values for CL/F and Vc/F were re-estimated using the SAEM algorithm implemented in Monolix. The remaining parameters, except for the covariate model, were fixed to the original values. As in the original model, all pharmacokinetic parameters were assumed to be log-normally distributed. Dichotomous categorical covariates, were implemented as follows:1 logCL/Ftypical=logCL/Fpop+β^COV with COV being 0 or 1 encoding for the presence or absence of covariate effect.
Continuous covariates were scaled to the population mean values using the following exponential relationship:2 logCL/Ftypical=logCL/Fpop+β∙COV with COV being the value of individual covariate, e.g., scaled eGFR = eGFR/70.2.
Inter-individual variability (η) was implemented for CL/F and Vc/F according to: 3 logCL/Find=logCL/Ftypical+ηind,CLFwithηCL/F∼N0,ωCL/F2logVc/Find=logVc/Ftypical+ηind,Vc/FwithηVc/F∼N0,ωVc/F2
Residual unexplained variability (RUV) was modeled using a proportional error model represented by the parameter b and the following equation:4 Concobs=Concpred∙1+ϵwithϵ∼N(0,b^2)
A stepwise approach was used to develop the covariate model. Covariate effects were assessed using the Wald test and by comparing objective function values (OFV, which is the −2-log-likelihood) and derived descriptors such as Bayesian Information Criteria (BIC), corrected Bayesian Information Criteria (cBIC), and Akaike Information Criteria (AIC). The criterion for forward inclusion was an improvement of the OFV (p ≤ 0.1). In the backward elimination, a limit for the p value of < 0.05 was applied. The following covariates were tested: the presence of strong or moderate CYP3A4 or CYP2C9 inhibitors on CL/F, the presence of PPI on F (as relative bioavailability), aspartate aminotransferase (AST) on CL/F, total body weight on Vc/F, eGFR on CL/F, sex on CL/F, and smoking habit on CL/F.

[3] = Observed concentrations versus concentrations simulated with Chen et al.'s popPK model for myelofibrosis patients; parameters: species or system human; settings: simulated with Chen et al.'s MF model, lower than observed
Text: The model published by Chen et al. was also encoded in R using the mrgsolve package for R [30]. Applying patient covariates and dosing schemes, the model was used to predict every observed concentration of every patient included in our study based on individual patient covariates and dosing data.

[4] = Clinical and laboratory adverse events (CTCAE v5.0) in relation to Ruxolitinib trough serum concentration; type: in vivo, human; settings: for Mean trough concentration in group: logistic regression on at least three AE
Description: Adverse events (AE) were registered by questioning patients at each sampling time point. Patients were specifically asked for AE occurring in ≥ 1/100 patients according to the prescribing information. Clinical AE were graded according to the […] (CTCAE) Version 5.0 [26]. Further recorded patient data included age, sex, height, weight, ethnicity, smoking status, dosing regimen, and comedication. Relevant laboratory parameters were recorded in parallel to blood sampling (estimated glomerular filtration rate (eGFR), serum creatinine, serum albumin, total cholesterol, total bilirubin, hemoglobin, white blood cell count, absolute neutrophil count, platelet count, aspartate, and alanine aminotransferase).
as §1

[5] = parameters: method as in Chen et al., J Clin Pharmacol. 2013;53(7):721-30; settings: fixed, ref Chen et al., J Clin Pharmacol. 2013;53(7):721-30, cited from earlier work
[6] = cited from earlier work
[7] = daily dose 5-< 20 mg, 51 samples
[8] = daily dose > 20-40 mg, 3 samples
[9] = popPK analysis in patients with aGvHD

Compound: CC[C@H]1OC(=O)[C@H](C)[C@@H](O[C@H]2C[C@@](C)(OC)[C@@H](O)[C@H](C)O2)[C@H](C)[C@@H](O[C@@H]2O[C@H](C)C[C@H](N(C)C)[C@H]2O)[C@](C)(O)C[C@@H](C)CN(C)[C@H](C)[C@@H](O)[C@]1(C)O [Azithromycin]
- CYP3A4 (inhibitor / inducer) (CYP3A4): inhibitor

Compound: CN(C)C(=O)C(CCN1CCC(O)(c2ccc(Cl)cc2)CC1)(c1ccccc1)c1ccccc1 [Loperamide]
- CYP3A4 (inhibitor / inducer) (CYP3A4): inhibitor
- CYP3A4 Strength (CYP3A4): strong

Compound: C=C[C@H]1C[N@@]2CC[C@H]1C[C@H]2[C@H](O)c1ccnc2ccc(OC)cc12 [Quinine]
- CYP3A4 (inhibitor / inducer) (CYP3A4): inducer / inhibitor

- Range of individual mean trough serum concentrations ([1]; 20 mg daily, n = 20 individuals): 5.6 to 99.8 ng/mL
- Median of individual mean trough serum concentrations ([1]; 20 mg daily, steady state, n = 20 individuals): 39.9 ng/mL
- Range of individual mean trough serum concentrations ([1]; 5-< 20 mg daily, n = 8 individuals): 7.7 to 46.8 ng/mL
- Median of individual mean trough serum concentrations ([1]; 5-< 20 mg daily, steady state, n = 8 individuals): 26.2 ng/mL
- Median of individual mean trough serum concentrations ([1]; > 20-40 mg daily, steady state, n = 2 individuals): 15 ng/mL
- Steady state trough serum concentration of all samples across all individuals, Median ([1]; daily dose 20 mg, 120 samples): 40.5 ng/mL
- Steady state trough serum concentration of all samples across all individuals, Range ([1]; daily dose 20 mg, 120 samples): 2.7 to 229 ng/mL
- Steady state trough serum concentration of all samples across all individuals, Median [1, 7]: 17.5 ng/mL
- Steady state trough serum concentration of all samples across all individuals, Range [1, 7]: 2.2 to 155 ng/mL
- Steady state trough serum concentration of all samples across all individuals, Median [1, 8]: 25.1 ng/mL
- Steady state trough serum concentration of all samples across all individuals, Range [1, 8]: 4.3 to 28.5 ng/mL
- Steady state trough serum concentration of all samples across all individuals, Median ([1]; daily dose: All, 174 samples): 31.4 ng/mL
- Steady state trough serum concentration of all samples across all individuals, Range ([1]; daily dose: All, 174 samples): 2.2 to 229 ng/mL
- Trough concentrations under dual CYP inhibition ([1]; two patients receiving Posaconazole plus Atorvastatin or Amiodarone, mostly above this value): > 80 ng/mL
- CL/F, population mean ([2]; base model): 8.55 L/h
- Vc/F, population mean ([2]; base model): 64.8 L
- RUV b (residual unexplained variability, proportional error) ([2]; base model): 0.50
- ωCL/F (inter-individual variability on CL/F) ([2]; base model): 0.52
- ωV (inter-individual variability on Vc/F) ([2]; base model): 0.25
- Reduction of CL/F due to coadministration of at least one strong CYP3A4 or CYP2C9 inhibitor ([2]; compared to study patients not receiving relevant strong inhibitors, back transformation of β): 15%
- Vc/F, population mean ([2]; covariate model): 61.9 L
- βCL, STRONG_INH (covariate effect of strong CYP3A4 or CYP2C9 inhibitors on CL/F) ([2]; covariate model): -0.16
- CL/F, population mean (typical CL/F) ([2]; covariate model including strong CYP inhibitors as covariate): 9.74 L/h
- Share of inter-individual variability on CL/F explained by strong CYP3A4 or CYP2C9 inhibitors ([2]; covariate model vs base model): about 4%
- RUV b (residual unexplained variability, proportional error) ([2]; covariate model): 0.50
- ωCL/F (inter-individual variability on CL/F) ([2]; covariate model): 0.48
- ωV (inter-individual variability on Vc/F) ([2]; covariate model): 0.29
- Effect of simultaneous administration of PPI on Ruxolitinib exposure ([2]; covariate tested on relative bioavailability): did not affect Ruxolitinib exposure
- Reduction of Ruxolitinib clearance in GvHD population ([2]; in comparison to the population of Chen et al. (patients with MF)): approximately 50%
- Median paired difference between observed and simulated serum concentrations ([3]; non-trough concentrations): 64.9 ng/mL
- Median paired difference between observed and simulated serum concentrations ([3]; trough concentrations): 27.1 ng/mL
Compound: N#CC[C@H](C1CCCC1)n1cc(-c2ncnc3[nH]ccc23)cn1 [Ruxolitinib]
- All trough serum concentrations at 5 mg daily ([1]; 5 mg daily, 3 of 4 samples < LLOQ (2 ng/mL)): ^aAll trough serum concentrations at 5 mg daily were ≤ 2.17 ng/mL (3 of 4 samples < LLOQ)
- Median of individual mean trough serum concentrations ([1]; 20 mg daily, patients not requiring AE-related dose reduction, n = 18): 39.8 ng/mL
- Median of individual mean trough serum concentrations ([1]; 20 mg daily, patients who had dose reductions for AE, before reduction, n = 4): 60.6 ng/mL
- Median of mean trough concentrations ([1]; patients with AE-related dose reduction, after dose reduction, n = 4): 28.4 ng/mL
- Clinical AE reported at the time of blood sampling, total number ([4]; 29 GvHD patients, all grades): 302
- Clinical AE of grade 1, number ([4]; CTCAE grade 1): 250
- Clinical AE of grade 2, number ([4]; CTCAE grade 2): 46
- Share of all reported clinical AE of grade 3 ([4]; CTCAE grade 3): 2.0%
- Clinical AE of grade 4 or 5 ([4]; CTCAE grade 4 or 5): no AE of grade 4 or 5
- Average clinical AE reported at each sampling time point ([4]; grade 1): 0.95
- Average clinical AE reported at each sampling time point ([4]; grade 2): 0.18
- Average clinical AE reported at each sampling time point ([4]; grade 3): 0.02
- Mean trough concentration in group ([4]; first of both groups as printed): 35.9 ng/mL
- Mean trough concentration in group ([4]; second of both groups as printed): 62.8 ng/mL
- Correlation between trough concentration and occurrence of grade 1 AE on the same visit ([4]; vertigo and cephalgia, p < 0.05): significant correlation
- Effect of Ruxolitinib exposure on thrombocyte count, absolute neutrophil count and bilirubin ([4]; visual analysis of the data): did not reveal obvious effects
- Q/F, population mean ([5]; base model): 2.53 L/h
- TLag, population mean ([5]; base model): 0.0545 h
- Vper/F, population mean ([5]; base model): 11.2 L
- ka, population mean ([5]; base model): 4.12 h⁻¹
- Q/F, population mean ([5]; covariate model): 2.53 L/h
- TLag, population mean ([5]; covariate model): 0.0545 h
- Vper/F, population mean ([5]; covariate model): 11.2 L
- ka, population mean ([5]; covariate model): 4.12 h⁻¹
- CL/F for a typical female ([6]; patients with MF): 17.7 L/h
- CL/F for a typical male ([6]; patients with MF): 22.1 L/h
- Lower oral clearance in comparison to MF patients [6, 9]: 66.7%
- Slower rate of absorption in comparison to MF patients [6, 9]: 28%
